Data from patent US8030498B2, “Benzoylpyrazole compounds and herbicides containing them” (Ishihara Sangyo Kaisha, Ltd., priority 2005, dated 2011).

Legend:
corn = test: Test Example 2: soil application on the day after sowing, growth inhibition rate, corn; format: in vivo, Zea mays L.; settings: 250 g/ha active ingredient, observed on 19th to 24th day
Procedure, shortened: (§1)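 Seeds were sown in upland field soil in pots, and on the following day compounds formulated as wettable powders or emulsifiable concentrates were diluted in water (500 liter per hectare) and sprayed onto the soil at prescribed active-ingredient doses. Growth was scored visually 19–24 days later, 0 = untreated to 100% = complete kill.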

rice = test: Test Example 2: soil application on the day after sowing, growth inhibition rate, rice; format: in vivo, Oryza sativa L.; settings: 250 g/ha active ingredient, observed on 19th to 24th day
Procedure, shortened: as §1

[1] = tested on: crabgrass (Digitaria sanguinalis L.); test: Test Example 1: foliar treatment, growth inhibition rate, crabgrass; format: in vivo; settings: 31 g/ha active ingredient, visually observed 17th to 23rd day after application
Procedure, shortened: (§2)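 Visual scoring of growth inhibition, 0% (untreated) to 100% (complete kill), on days 17–23 following post-emergence spray of formulated compound in water (500 L/ha, 0.1 vol % spreader); plants treated at set leaf stages, e.g. corn 2.0–3.5, wheat 1.7–3.4.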

[2] = tested on: redroot pigweed (Amaranthus retroflexus L.); test: Test Example 1: foliar treatment, growth inhibition rate, redroot pigweed; format: in vivo; settings: 31 g/ha active ingredient, visually observed 17th to 23rd day after application
Procedure, shortened: as §2

rice (Oryza sativa L.) = test: Test Example 1: foliar treatment, growth inhibition rate, rice; format: in vivo; settings: 31 g/ha active ingredient, visually observed 17th to 23rd day after application
Procedure, shortened: (§3)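 Post-emergence foliar spray, pot test; WP/EC formulation in water at 500 L/ha, + 0.1 vol % spreader; leaf stage at treatment: corn 2.0–3.5, green foxtail 1.0–3.0, rice 1.0–2.5, wheat 1.7–3.4; visual % inhibition at 17–23 DAT (0 = untreated, 100 = dead).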

velvetleaf = test: Test Example 2: soil application on the day after sowing, growth inhibition rate, velvetleaf; format: in vivo, Abutilon theophrasti MEDIC.; settings: 250 g/ha active ingredient, observed on 19th to 24th day
Procedure, shortened: as §1

[3] = tested on: velvetleaf (Abutilon theophrasti MEDIC.); test: Test Example 1: foliar treatment, growth inhibition rate, velvetleaf; format: in vivo; settings: 31 g/ha active ingredient, visually observed 17th to 23rd day after application
Procedure, shortened: (§4)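 Plants grown in upland soil in pots were sprayed on the foliage at set leaf stages (corn 2.0–3.5, greenfoxtail 1.0–3.0, rice 1.0–2.5, wheat 1.7–3.4 leaves) with wettable powder or emulsifiable concentrate formulations diluted in water at 500 L/ha plus 0.1 vol % spreader. Growth inhibition was scored visually 17–23 days later.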

[4] = tested on: barnyardgrass (Echinochloa crus-galli L.); test: Test Example 1: foliar treatment, growth inhibition rate, barnyardgrass; format: in vivo; settings: 31 g/ha active ingredient, visually observed 17th to 23rd day after application
Procedure, shortened: as §4

wheat = test: Test Example 2: soil application on the day after sowing, growth inhibition rate, wheat; format: in vivo, Triticum spp.; settings: 250 g/ha active ingredient, observed on 19th to 24th day
Procedure, shortened: as §1

redroot pigweed = test: Test Example 2: soil application on the day after sowing, growth inhibition rate, redroot pigweed; format: in vivo, Amaranthus retroflexus L.; settings: 250 g/ha active ingredient, observed on 19th to 24th day
Procedure, shortened: as §1

[5] = tested on: prickly sida (Sida spinosa L.); test: Test Example 1: foliar treatment, growth inhibition rate, prickly sida; format: in vivo; settings: 31 g/ha active ingredient, visually observed 17th to 23rd day after application
Procedure, shortened: as §2

barnyardgrass = test: Test Example 2: soil application on the day after sowing, growth inhibition rate, barnyardgrass; format: in vivo, Echinochloa crus-galli L.; settings: 250 g/ha active ingredient, observed on 19th to 24th day
Procedure, shortened: as §1

corn (Zea mays L.) = test: Test Example 1: foliar treatment, growth inhibition rate, corn; format: in vivo; settings: 31 g/ha active ingredient, visually observed 17th to 23rd day after application
Procedure, shortened: as §3

greenfoxtail = test: Test Example 2: soil application on the day after sowing, growth inhibition rate, greenfoxtail; format: in vivo, Setaria viridis L.; settings: 250 g/ha active ingredient, observed on 19th to 24th day
Procedure, shortened: as §1

wheat (Triticum spp.) = test: Test Example 1: foliar treatment, growth inhibition rate, wheat; format: in vivo; settings: 31 g/ha active ingredient, visually observed 17th to 23rd day after application
Procedure, shortened: as §3

[6] = tested on: greenfoxtail (Setaria viridis L.); test: Test Example 1: foliar treatment, growth inhibition rate, greenfoxtail; format: in vivo; settings: 31 g/ha active ingredient, visually observed 17th to 23rd day after application
Procedure, shortened: as §3

prickly sida = test: Test Example 2: soil application on the day after sowing, growth inhibition rate, prickly sida; format: in vivo, Sida spinosa L.; settings: 250 g/ha active ingredient, observed on 19th to 24th day
Procedure, shortened: as §1

[7] = tested on: soybean (Glycine max Merr.); test: Test Example 1: foliar treatment, growth inhibition rate, soybean; format: in vivo; settings: 31 g/ha active ingredient, visually observed 17th to 23rd day after application
Procedure, shortened: as §2

crabgrass = test: Test Example 2: soil application on the day after sowing, growth inhibition rate, crabgrass; format: in vivo, Digitaria sanguinalis L.; settings: 250 g/ha active ingredient, observed on 19th to 24th day
Procedure, shortened: as §1

soybean = test: Test Example 2: soil application on the day after sowing, growth inhibition rate, soybean; format: in vivo, Glycine max Merr.; settings: 250 g/ha active ingredient, observed on 19th to 24th day
Procedure, shortened: as §1

CCCSC(=O)Oc1c(C(=O)c2ccc(S(C)(=O)=O)c(C(=O)OC)c2C)cnn1CC [compound 85]
Growth inhibition rate (%) Corn (corn): 10%
Growth inhibition rate (%) Rice (rice): 100%
Growth inhibition rate (%) Crabgrass [1]: 98%
Growth inhibition rate (%) redroot pigweed [2]: 95%
Growth inhibition rate (%) Rice (rice (Oryza sativa L.)): 95%
Growth inhibition rate (%) Velvetleaf (velvetleaf): 100%
Growth inhibition rate (%) Velvetleaf [3]: 98%
Growth inhibition rate (%) Barnyardgrass [4]: 98%
Growth inhibition rate (%) Wheat (wheat): 0%
Growth inhibition rate (%) redroot pigweed (redroot pigweed): 98%
Growth inhibition rate (%) Prickly sida [5]: 98%
Growth inhibition rate (%) Barnyardgrass (barnyardgrass): 100%
Growth inhibition rate (%) Corn (corn (Zea mays L.)): 10%
Growth inhibition rate (%) Greenfoxtail (greenfoxtail): 100%
Growth inhibition rate (%) Wheat (wheat (Triticum spp.)): 60%
Growth inhibition rate (%) Greenfoxtail [6]: 100%
Growth inhibition rate (%) Prickly sida (prickly sida): 100%
Growth inhibition rate (%) Soybean [7]: 98%
Growth inhibition rate (%) Crabgrass (crabgrass): 100%
Growth inhibition rate (%) Soybean (soybean): 50%

CCOC(=O)COc1c(S(C)(=O)=O)ccc(C(=O)c2cnn(C)c2OC(=O)SCC)c1C [compound 65]
Growth inhibition rate (%) Corn (corn): 0%
Growth inhibition rate (%) Rice (rice): 0%
Growth inhibition rate (%) Crabgrass [1]: 10%
Growth inhibition rate (%) redroot pigweed [2]: 30%
Growth inhibition rate (%) Rice (rice (Oryza sativa L.)): 0%
Growth inhibition rate (%) Velvetleaf (velvetleaf): 0%
Growth inhibition rate (%) Velvetleaf [3]: 50%
Growth inhibition rate (%) Barnyardgrass [4]: 20%
Growth inhibition rate (%) Wheat (wheat): 0%
Growth inhibition rate (%) redroot pigweed (redroot pigweed): 20%
Growth inhibition rate (%) Prickly sida [5]: 30%
Growth inhibition rate (%) Barnyardgrass (barnyardgrass): 0%
Growth inhibition rate (%) Corn (corn (Zea mays L.)): 0%
Growth inhibition rate (%) Greenfoxtail (greenfoxtail): 10%
Growth inhibition rate (%) Wheat (wheat (Triticum spp.)): 0%
Growth inhibition rate (%) Greenfoxtail [6]: 10%
Growth inhibition rate (%) Prickly sida (prickly sida): 0%
Growth inhibition rate (%) Soybean [7]: 10%
Growth inhibition rate (%) Crabgrass (crabgrass): 10%
Growth inhibition rate (%) Soybean (soybean): 0%

CCSC(=O)Oc1c(C(=O)c2ccc(S(C)(=O)=O)c(OCCCOC)c2C)cnn1C [compound 218]
Growth inhibition rate (%) Corn (corn): 0%
Growth inhibition rate (%) Rice (rice): 80%
Growth inhibition rate (%) Crabgrass [1]: 100%
Growth inhibition rate (%) redroot pigweed [2]: 100%
Growth inhibition rate (%) Rice (rice (Oryza sativa L.)): 98%
Growth inhibition rate (%) Velvetleaf (velvetleaf): 30%
Growth inhibition rate (%) Velvetleaf [3]: 90%
Growth inhibition rate (%) Barnyardgrass [4]: 100%
Growth inhibition rate (%) Wheat (wheat): 0%
Growth inhibition rate (%) redroot pigweed (redroot pigweed): 100%
Growth inhibition rate (%) Prickly sida [5]: 70%
Growth inhibition rate (%) Barnyardgrass (barnyardgrass): 90%
Growth inhibition rate (%) Corn (corn (Zea mays L.)): 0%
Growth inhibition rate (%) Greenfoxtail (greenfoxtail): 90%
Growth inhibition rate (%) Wheat (wheat (Triticum spp.)): 10%
Growth inhibition rate (%) Greenfoxtail [6]: 95%
Growth inhibition rate (%) Prickly sida (prickly sida): 50%
Growth inhibition rate (%) Soybean [7]: 95%
Growth inhibition rate (%) Crabgrass (crabgrass): 80%
Growth inhibition rate (%) Soybean (soybean): 0%

CCn1ncc(C(=O)c2ccc(S(C)(=O)=O)c(C(=O)OC)c2C)c1OC(=O)SC(C)(C)C [compound 91]
Growth inhibition rate (%) Corn (corn): 0%
Growth inhibition rate (%) Rice (rice): 80%
Growth inhibition rate (%) Crabgrass [1]: 98%
Growth inhibition rate (%) redroot pigweed [2]: 98%
Growth inhibition rate (%) Rice (rice (Oryza sativa L.)): 90%
Growth inhibition rate (%) Velvetleaf (velvetleaf): 70%
Growth inhibition rate (%) Velvetleaf [3]: 95%
Growth inhibition rate (%) Barnyardgrass [4]: 95%
Growth inhibition rate (%) Wheat (wheat): 0%
Growth inhibition rate (%) redroot pigweed (redroot pigweed): 100%
Growth inhibition rate (%) Prickly sida [5]: 75%
Growth inhibition rate (%) Barnyardgrass (barnyardgrass): 90%
Growth inhibition rate (%) Corn (corn (Zea mays L.)): 20%
Growth inhibition rate (%) Greenfoxtail (greenfoxtail): 60%
Growth inhibition rate (%) Wheat (wheat (Triticum spp.)): 0%
Growth inhibition rate (%) Greenfoxtail [6]: 98%
Growth inhibition rate (%) Prickly sida (prickly sida): 95%
Growth inhibition rate (%) Soybean [7]: 98%
Growth inhibition rate (%) Crabgrass (crabgrass): 95%
Growth inhibition rate (%) Soybean (soybean): 30%
